“Also recorded” adds a separate entry of the source.
How the values were obtained:
[1] = molecular target: T1, bond of purified uPAR to the VN (Homo sapiens, UniProt Q03405); assay: Bond of soluble biotinylated uPAR to immobilized VN (ELISA); assay type: binding; conditions: FIG. 2(A): compounds at 50 µM vs DMSO vehicle (100%)
T1 construct: Soluble recombinant uPAR (suPAR; R&D System, Minneapolis, MN, USA); purchased R&D System
Protocol: Soluble recombinant uPAR (suPAR; R&D System, Minneapolis, MN, USA) was biotinylated and purified with the biotinylation module of the proteins ECL Amersham according to the producer’s instructions (GE Healthcare, Buckinghamshire, UK).
The (high-binding) plates with 96 wells (Corning, New York, USA) were covered with 0.5 µg/well of VN (Becton Dickinson Biosciences, Franklin Lakes, NJ, USA) diluted in PBS (0.08 M NaCl, 0.002 M KCl, 0.0115 M Na2HPO4, 0.002 M KH2PO4, pH 7.2) or bovine serum albumin (BSA), as negative control, and incubated at 4° C. for the entire night. After a washing in PBS, the residual bond sites were blocked with 200 µL of BSA at 1% in PBS, for 1 hour at ambient temperature. 25 nmol/L of biotinylated s-uPAR (diluted in PBS, 1 mg/mL of BSA), on its own or in the presence of selected compounds, were placed in the covered wells. The plates were maintained at 4° C. for 1 hour, washed with PBS containing 0.1% Tween 20 and then avidin marked with peroxidase (Amersham), diluted 1:1.500 in PBS containing 10 mg/mL of BSA. After further washings, the substrate of peroxidase o-phenylenediamine (Sigma, St. Louis, MO, USA) was added and left to react for 3 minutes. The reactions were stopped with 1 mol/L H2SO4 and the product was measured at 492 nm by using an automated plate reader (Bio-Rad, Munich, Germany).

BJ cells = assay: Cell adhesion assay to VN on BJ cells; assay type: cell-based, human; conditions: FIG. 2(B): BJ cells treated with compounds at 50 µM vs DMSO vehicle (100%)
Protocol: The cell line BJ (ATCC CRL2522) was used as model of human skin fibroblasts. The cells were cultivated in Dulbecco’s Modified Eagle Medium (DMEM) containing fetal bovine serum at 10% (FBS) at 37° C. with CO2 at 5%.
The plates with 96 wells (Nunc, Roskilde, Denmark) were covered with VN (1 µg) or with 100 µl of 1% BSA deactivated with heat in PBS, as negative control, and incubated during the entire night at 4° C. The plates were then blocked 1 hour at ambient temperature with 1% BSA deactivated with heat in 1% PBS. The cells were detached with PBS containing 2 mM of EDTA and washed with DMEM lacking serum, they were counted, plated in the wells with a density of 10^5 cells/well and incubated for 1 hour at 37° C. in the presence of or in the absence of the selected compounds. The cells were then fixed with paraformaldehyde at 3% in PBS for 10 minutes and then incubated with methanol at 2% for 10 minutes. The cells were finally colored for 10 minutes with 0.5% crystal violet in 20% methanol, eluted with 0.1 mol/l of sodium citrate in 50% ethanol (pH 4.2) and the absorbance was measured at 540 nm with a spectrophotometer.

T1 sequence (Q03405 23-305 limits assumed): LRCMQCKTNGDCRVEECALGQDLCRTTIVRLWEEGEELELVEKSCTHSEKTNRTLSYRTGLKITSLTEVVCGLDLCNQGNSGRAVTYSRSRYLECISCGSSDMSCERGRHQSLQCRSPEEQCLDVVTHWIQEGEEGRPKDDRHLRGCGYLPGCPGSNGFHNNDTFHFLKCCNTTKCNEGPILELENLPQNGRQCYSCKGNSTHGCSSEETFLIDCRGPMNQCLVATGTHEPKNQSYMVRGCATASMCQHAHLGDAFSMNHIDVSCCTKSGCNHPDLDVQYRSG

Row | Structure (SMILES) | inhibitory activity against the interaction of the uPAR with the VN in vitro [1] | inhibitory activity against cell adhesion to the VN (BJ cells)
1 | Cc1ccc(C(C)(C)c2ccc(C)cc2O)c(O)c1 [Compound 3, 6,6′-(propan-2,2-diyl)bis(3-methylphenol)] | greater inhibitory activity | greater inhibitory activity
2 | CC(C)(C)c1cc(Cl)c(O)c(Cc2cc(C(C)(C)C)cc(Cl)c2O)c1 [Compound 23, 6,6′-methylenebis(4-(tert-butyl)-2-chlorophenol)] | greater inhibitory activity | greater inhibitory activity; also recorded: considerable contribution
3 | CCCc1cc(-c2ccc(O)c(CCC)c2)ccc1O [Compound 19, 3,3′-dipropyl[1,1′-biphenyl]-4,4′-diol] | greater inhibitory activity | greater inhibitory activity; also recorded: considerable contribution
4 | Cc1cc(Cc2cc(C)cc(C(C)(C)C)c2O)c(O)c(C(C)(C)C)c1 [Compound 20, 6,6′-methylenebis(2-(tert-butyl)-4-methylphenol)] | greater inhibitory activity | greater inhibitory activity; also recorded: considerable contribution

— patent US20230149323A1, “INHIBITORS OF THE INTERACTION OF THE UPAR/FPRS RECEPTORS” (ORPHA BIOTECH S.R.L., priority 2020, published 2023)
